From PubChem BioAssay (NCI)
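Step 1: Grow cells in 96-well plates. Step 2: Expose to compound for 48 hours at 5 concentrations. Step 3: Interpolate endpoints linearly; if unreached, use highest concentration. TGI is the concentration that stops growth completely.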

Tests used:
Experiment in all cases: NCI anticancer screen, dose series, 48 h
[1] = tested on: SN12C renal
[2] = tested on: NCI-H23 lung
[3] = tested on: SK-MEL-2 melanoma
[4] = tested on: OVCAR-3 ovarian
[5] = tested on: A498 renal
[6] = tested on: 786-0 renal
[7] = tested on: KM20L2 colon
[8] = tested on: HCT-15 colon
[9] = tested on: DMS 273 small cell lung
[10] = tested on: MOLT-4 leukemia
[11] = tested on: LXFL 529 NSCLC
[12] = tested on: OVCAR-8 ovarian
[13] = tested on: M14 melanoma
[14] = tested on: HT29 colon
[15] = tested on: SK-OV-3 ovarian
[16] = tested on: LOX IMVI melanoma
[17] = tested on: SW-620 colon
[18] = tested on: DMS 114 small cell lung
[19] = tested on: SNB-75 CNS
[20] = tested on: HOP-18 NSCLC
[21] = tested on: SK-MEL-28 melanoma
[22] = tested on: SF-295 CNS
[23] = tested on: XF 498 CNS
[24] = tested on: OVCAR-5 ovarian
[25] = tested on: UACC-257 melanoma
[26] = tested on: COLO 205 colon
[27] = tested on: KM12 colon
[28] = tested on: SK-MEL-5 melanoma
[29] = tested on: NCI-H460 lung
[30] = tested on: M19-MEL melanoma
[31] = tested on: SF-268 CNS
[32] = tested on: K-562 leukemia
[33] = tested on: A549 NSCLC
[34] = tested on: SNB-19 CNS
[35] = tested on: UO-31 renal
[36] = tested on: ACHN renal
[37] = tested on: HOP-62 NSCLC
[38] = tested on: OVCAR-4 ovarian
[39] = tested on: NCI-H226 lung
[40] = tested on: HL-60(TB) leukemia
[41] = tested on: HCC-2998 colon
[42] = tested on: TK-10 renal
[43] = tested on: SF-539 CNS
[44] = tested on: DLD-1 colon
[45] = tested on: SNB-78 CNS
[46] = tested on: CAKI-1 renal
[47] = tested on: SR leukemia
[48] = tested on: RPMI-8226 leukemia
[49] = tested on: IGROV1 ovarian
[50] = tested on: UACC-62 melanoma
[51] = tested on: U251 CNS
[52] = tested on: HCT-116 colon
[53] = tested on: EKVX NSCLC
[54] = tested on: NCI-H522 lung
[55] = tested on: HOP-92 NSCLC
[56] = tested on: CCRF-CEM leukemia
[57] = tested on: RXF 393 renal
[58] = tested on: MALME-3M melanoma

Measured: TGI

O=S(=O)(c1ccccc1)c1nccs1
> 100 µM: [1] | [2] | [3] | [4] | [5] | [6] | [7] | [8] | [9] | [10] | [11] | [12] | [13] | [14] | [15] | [16] | [17] | [18] | [19] | [20] | [21] | [22] | [23] | [24] | [25] | [26] | [27] | [28] | [29] | [30] | [31] | [32] | [33] | [34] | [35] | [36] | [37] | [38] | [39] | [40] | [41] | [42] | [43] | [44] | [45] | [46] | [47] | [48] | [49] | [50] | [51] | [52] | [53] | [54]

CO[C@H]1CC[C@]2(C)C3=CC[C@@]4(C)C(CC[C@@H]4C(C)CC[C@@H](C)C(C)C)C(=CCC2C1)O3 (some centres not stated)
> 7.9 µM: [2]
> 25 µM: [1] | [3] | [4] | [5] | [55] | [56] | [6] | [7] | [8] | [9] | [10] | [11] | [12] | [13] | [14] | [15] | [16] | [17] | [18] | [19] | [20] | [21] | [22] | [23] | [24] | [25] | [26] | [27] | [28] | [29] | [30] | [31] | [32] | [33] | [34] | [35] | [36] | [37] | [38] | [39] | [40] | [41] | [42] | [43] | [44] | [45] | [46] | [47] | [57] | [48] | [49] | [50] | [51] | [58] | [52] | [53] | [54]
